From patent US8324173B2, “Peptides useful as dual caspase-2/-6 inhibitors and their biological applications” (Chiesi Farmaceutici S.p.A., priority 2004, dated 2012)
Peptide text beside a SMILES is read from it.

Columns and labels:
Format in all cases: biochemical
[1] = target: T1, human recombinant caspase-2 (Homo sapiens, UniProt P42575); experiment: In vitro caspase-2 cleavage assay (Ac-VDVAD-AMC substrate); design: key to Group (pattern of caspase-2 inhibition curve): group 1 referred to inhibitors that were relatively more active than VDVAD(SEQ ID NO:9)-based inhibitors against caspase-2 at lower doses, but with similar IC50 values; group 2 referred to VDVAD(SEQ ID NO:9)-based inhibitor with characteristic sigmoid dose-response; group 3 referred to pentapetidic-based inhibitors that were less active than VDVAD(SEQ ID NO:9)-based inhibitors against caspase-2 at lower doses and that exhibited higher IC50; conditions: for Group (pattern of caspase-2 inhibition curve) / IC50: Table 4; for IC50: 30 min pre-incubation, 2 h at 37° C.
T1 construct: purchased BIOMOL
T1 sequence (P42575 170-333 limits assumed): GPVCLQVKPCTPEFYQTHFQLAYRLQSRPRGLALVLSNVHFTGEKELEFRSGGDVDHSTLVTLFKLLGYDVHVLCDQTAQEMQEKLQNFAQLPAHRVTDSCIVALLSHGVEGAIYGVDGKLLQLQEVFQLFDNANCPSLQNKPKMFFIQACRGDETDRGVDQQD
T1 sequence (P42575 348-452 limits assumed): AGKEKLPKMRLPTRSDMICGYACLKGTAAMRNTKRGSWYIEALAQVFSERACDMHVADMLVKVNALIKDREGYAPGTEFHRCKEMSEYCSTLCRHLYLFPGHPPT
Protocol: Newly designed inhibitors (Ac-LDEAD(SEQ ID NO:7)-CHO, Ac-VDEAD(SEQ ID NO:1)-CHO . . . ) were compared to Ac-VDVAD(SEQ ID NO:9)-CHO in in vitro caspase-2 cleavage assay according to the following protocol (FIG. 8). Human recombinant caspases (25-50 U; QuantiZyme™ Assay System, BIOMOL, Plymouth, Pa., USA) were pre-incubated 30 min with inhibitors (0.005-2 μM) in final 100 μl final assay buffer (50 mM HEPES, pH 7.4, 100 mM NaCl, 0.1% CHAPS, 10 mM DTT, 1 mM EDTA, 10% glycerol) and then mixed with 200 μM of the fluorogenic caspase substrates (BIOMOL) Ac-VDVAD(SEQ ID NO:9)-AMC. An IC50 value corresponding to the concentration that could inhibit 50% of caspase activity was determined from the dose-response sigmoid curve. The cleavage of AMC-based substrates by human recombinant caspases 1-10 was measured after 2 h at 37° C. on a fluorescence microplate reader by monitoring emission at 510 nm upon excitation at 405 nm.

Human granzyme B = target: T2, Human granzyme B (Homo sapiens, UniProt P10144); experiment: Granzyme B inhibition assay (Ac-IEPD-pNA); conditions: 2 μM
T2 construct: purchased Biomol
T2 sequence (P10144 21-247): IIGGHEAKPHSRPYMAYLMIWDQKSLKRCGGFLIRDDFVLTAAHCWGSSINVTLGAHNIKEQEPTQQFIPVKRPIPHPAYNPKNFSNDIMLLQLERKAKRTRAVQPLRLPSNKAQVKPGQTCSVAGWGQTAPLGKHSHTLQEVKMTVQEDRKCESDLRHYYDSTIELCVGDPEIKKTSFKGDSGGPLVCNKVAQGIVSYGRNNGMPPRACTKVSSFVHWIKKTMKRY
Protocol: (§1) Additionally, specificity of newly designed inhibitors was checked against calpains and Granzyme B. Human recombinant calpain I (0.8 U) and rat recombinant calpain II (20 U) (both from Biomol) were pre-incubated 30 min with inhibitors in final 100 μl final assay buffer (50 mM HEPES, pH 7.4, 100 mM NaCl, 0.1% CHAPS, 5 mM CaCl2, 1 mM EDTA, 10% glycerol, 2 mM β-mercaptoethanol) and then mixed with 20 μM of the fluorogenic calpain substrates I or II (Calbiochem), respectively. ALLN and ALLM (1 μM) were internal controls for inhibition. The cleavage of substrates by recombinant enzymes was measured after 2 h at 37° C. on a fluorescence microplate reader by monitoring emission at 460 nm upon excitation at 380 nm for calpain I or emmission at 530 nm upon excitation at 485 nm for calpain II. Human granzyme B (50 U; Biomol) was pre-incubated 10 min with inhibitors in final 100 μl final granzyme assay buffer (Biomol) and then mixed with 400 μM of Ac-IEPD-pNA (Biomol). 3,4 DCIC (1 μM) was used as positive control for inhibition. The cleavage of substrate was measured after 1 h at 37° C. on a spectrophotometer at […]. Ac-IEPD-pNA is DEQ ID NO:29.

[2] = target: T3, rat recombinant calpain II (Rattus norvegicus, UniProt Q07009); experiment: Calpain II inhibition assay; conditions: 2 μM
T3 construct: purchased Biomol
T3 sequence (Q07009 1-700): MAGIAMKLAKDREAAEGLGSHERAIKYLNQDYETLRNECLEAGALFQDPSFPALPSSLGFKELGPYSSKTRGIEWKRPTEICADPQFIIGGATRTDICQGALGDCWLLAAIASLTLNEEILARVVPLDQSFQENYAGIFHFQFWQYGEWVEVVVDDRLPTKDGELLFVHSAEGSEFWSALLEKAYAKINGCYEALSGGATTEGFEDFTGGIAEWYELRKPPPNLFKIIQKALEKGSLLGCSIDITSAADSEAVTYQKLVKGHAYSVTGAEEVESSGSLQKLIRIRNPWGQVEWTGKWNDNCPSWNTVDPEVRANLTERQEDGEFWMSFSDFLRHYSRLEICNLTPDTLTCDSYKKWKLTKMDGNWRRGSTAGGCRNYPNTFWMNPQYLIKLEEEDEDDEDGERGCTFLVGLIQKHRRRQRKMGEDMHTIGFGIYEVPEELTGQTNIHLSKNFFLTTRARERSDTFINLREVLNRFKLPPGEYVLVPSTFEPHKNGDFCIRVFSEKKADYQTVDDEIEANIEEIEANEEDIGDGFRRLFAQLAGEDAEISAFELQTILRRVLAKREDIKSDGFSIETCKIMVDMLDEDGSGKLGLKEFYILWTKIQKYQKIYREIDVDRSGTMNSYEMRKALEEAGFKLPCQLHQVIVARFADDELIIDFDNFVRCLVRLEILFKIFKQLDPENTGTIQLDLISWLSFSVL
T3 sequence (Q64537 87-270 partner limits assumed): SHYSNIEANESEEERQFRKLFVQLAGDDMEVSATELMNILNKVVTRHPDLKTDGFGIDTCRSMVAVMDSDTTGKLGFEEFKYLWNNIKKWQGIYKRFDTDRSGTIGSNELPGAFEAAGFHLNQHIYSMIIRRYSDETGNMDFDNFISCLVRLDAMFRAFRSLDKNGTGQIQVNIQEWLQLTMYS
Protocol: as §1

[3] = target: T4, Human recombinant calpain I (Homo sapiens, UniProt P07384); experiment: Calpain I inhibition assay; conditions: 2 μM
T4 construct: purchased Biomol
T4 sequence (P07384 1-714): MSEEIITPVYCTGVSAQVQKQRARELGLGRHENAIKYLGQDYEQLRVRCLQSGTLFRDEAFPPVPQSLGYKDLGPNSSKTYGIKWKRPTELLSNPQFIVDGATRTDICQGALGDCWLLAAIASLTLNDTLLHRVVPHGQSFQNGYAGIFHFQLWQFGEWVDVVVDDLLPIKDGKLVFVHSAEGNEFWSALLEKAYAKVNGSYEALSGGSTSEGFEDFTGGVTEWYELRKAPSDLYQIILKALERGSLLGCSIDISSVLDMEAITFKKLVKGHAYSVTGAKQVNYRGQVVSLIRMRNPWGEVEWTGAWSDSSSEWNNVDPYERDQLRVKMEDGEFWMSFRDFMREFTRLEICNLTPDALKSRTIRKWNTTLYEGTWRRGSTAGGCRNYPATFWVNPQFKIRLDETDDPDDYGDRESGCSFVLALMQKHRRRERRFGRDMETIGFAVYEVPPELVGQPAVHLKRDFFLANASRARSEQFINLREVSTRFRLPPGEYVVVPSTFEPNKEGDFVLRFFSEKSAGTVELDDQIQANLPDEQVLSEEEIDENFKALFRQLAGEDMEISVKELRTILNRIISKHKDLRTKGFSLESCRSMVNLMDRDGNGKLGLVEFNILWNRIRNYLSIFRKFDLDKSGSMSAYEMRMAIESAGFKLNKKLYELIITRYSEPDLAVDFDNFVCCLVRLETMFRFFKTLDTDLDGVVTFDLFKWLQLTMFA
T4 sequence (P04632 1-268 partner): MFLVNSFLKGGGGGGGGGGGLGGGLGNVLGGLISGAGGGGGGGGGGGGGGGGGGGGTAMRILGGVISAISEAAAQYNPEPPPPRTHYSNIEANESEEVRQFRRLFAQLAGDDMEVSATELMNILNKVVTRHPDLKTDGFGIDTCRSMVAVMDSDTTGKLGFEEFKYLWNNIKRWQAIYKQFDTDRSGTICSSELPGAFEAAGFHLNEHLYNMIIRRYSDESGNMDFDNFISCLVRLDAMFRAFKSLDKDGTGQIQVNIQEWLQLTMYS
Protocol: as §1

other caspases = experiment: In vitro cleavage assay on panel of human recombinant caspases (cross-reaction); conditions: at high doses
Protocol: Newly designed inhibitors (Ac-LDEAD(SEQ ID NO:7)-CHO, Ac-VDEAD(SEQ ID NO:1)-CHO) . . . ) were tested against a large panel of caspase (1 to 10) during in vitro cleavage assay according to the following protocol. Human recombinant caspases (25-50 U; Biomol) were pre-incubated 30 min with inhibitors (0.005-2 μM) in final 100 μl final assay buffer (50 mM HEPES, pH 7.4, 100 mM NaCl, 0.1% CHAPS, 10 mM DTT, 1 mM EDTA, 10% glycerol) and then mixed with 200 μM of their specific fluorogenic caspase substrates (BIOMOL) (Ac-YVAD(SEQ ID NO:23)-AMC (caspase-1), Ac-VDVAD(SEQ ID NO:9)-AMC (caspase-2), Ac-DEVD(SEQ ID NO:24)-AMC (caspase-3/-7), Ac-VEID(SEQ ID NO:25)-AMC (caspase-6), Ac-IETD(SEQ ID NO:26)-AMC (caspase-81-10)1Ac-LEHD(SEQ ID NO:27)-AMC (caspase-9). The cleavage of AMC-based substrates by human recombinant caspases 1-10 was measured after 2 h at 37° C. on a fluorescence microplate reader by monitoring emission at 510 nm upon excitation at 405 nm.

Group (pattern of caspase-2 inhibition curve) [1] | IC50 [1] [nM] | inhibition of granzyme B (Human granzyme B) | inhibition of calpain II [2] | inhibition of calpain I [3] | VDVAD-AMC cleavage by caspase-2 ([1]; recombinant caspase-2, FIG. 16) | SMILES | inhibition of other caspases (cross-reaction) (other caspases)
1 | 85 ± 5 | not strong inhibitors | not strong inhibitors | not strong inhibitors |  | CC(=O)N[C@H](C(=O)N[C@@H](CC(=O)O)C(=O)N[C@@H](CCC(=O)O)C(=O)N[C@@H](C)C(=O)N[C@H](C=O)CC(=O)O)C(C)C [Compound 20, Ac-VDEAD(SEQ ID NO:1)-cho] (Ac-VDEAD-aldehyde) | 
2 |  |  |  |  | blocked | CC(=O)N[C@H](C(=O)N[C@@H](CC(=O)O)C(=O)N[C@H](C(=O)N[C@@H](C)C(=O)N[C@H](C=O)CC(=O)O)C(C)C)C(C)C [Compound 8, Ac-VDVAD-cho, reference compound] (Ac-VDVAD-aldehyde) | less than 20%
1 | 85 ± 6 | not strong inhibitors | not strong inhibitors | not strong inhibitors |  | CC(=O)N[C@@H](CC(C)C)C(=O)N[C@@H](CC(=O)O)C(=O)N[C@@H](CCC(=O)O)C(=O)N[C@@H](C)C(=O)N[C@H](C=O)CC(=O)O [Compound 14, Ac-LDEAD(SEQ ID NO:7)-cho] (Ac-LDEAD-aldehyde) | 
